{
  "source": "patent US9682931B2",
  "about": "“Aryloyl(oxy or amino)pentafluorosulfanylbenzene compound, pharmaceutically acceptable salt thereof, and prodrugs thereof” (UBE INDUSTRIES, LTD., priority 2013, dated 2017)",
  "note": "Counter-ions that a name gives are not always drawn.",
  "data": [
    {"system": "K562 human leukemia-derived cell lines", "assay": "K562 human leukemia cell-proliferation inhibition test", "assay_type": "cell-based", "settings": "Homo sapiens, K562, 72 h", "procedure": "(§1) K562 Human Leukemia Cell-Proliferation Inhibition Test\n(§2) A cell proliferation inhibition test using K562 cells was performed. The activity in the presence of a test substance was compared to the activity in the presence of green tea polyphenol (GTP). The materials used in the test are as follows.\n(§3) Cells: K562 human leukemia-derived cell lines (DS Pharma Biomedical Co., Ltd.)\n(§4) Control Substance: Green Tea Polyphenols, abbreviation: GTP (LKT Laboratories, Inc.)\n(§5) Culture solution: 10% equine serum-supplemented RPMI1640 medium\n(§6) A test substance and a control substance were used by dissolving each of them in DMSO. To a solution (0.99 mL) containing K562 cells in a cell concentration of 20,000 cells/mL, a test substance solution or a control substance solution (0.01 mL) was added and the cells were cultured. Seventy two hours later, a part of the cells was stained with trypan blue and viable cells were counted by a counting chamber.\n(§7) In Table 2, “IC50” denotes the sample concentration inhibiting 50% of cell proliferation", "units": {"IC50": "µg/mL"}, "values": [
      {"smiles": "Nc1ccc(C(=O)Nc2ccc(S(F)(F)(F)(F)F)cc2)cc1", "note": "[Compound 63, 4-(4-aminobenzoylamino)pentafluorosulfanylbenzene hydrochloride salt]", "IC50": 0.85}
    ]},
    {"system": "K562 human leukemia-derived cell lines", "assay": "K562 human leukemia cell-proliferation inhibition test", "assay_type": "cell-based", "settings": "Homo sapiens, K562, 72 h, K562 cells, 72 hours, viable cells counted with trypan blue; read-out: IC50", "procedure": "as §1, §2, §3, §4, §5, §6, §7", "units": {"IC50": "µg/mL"}, "values": [
      {"smiles": "COc1cc(C(=O)Nc2ccc(S(F)(F)(F)(F)F)cc2)ccc1O", "note": "[Compound 45, 4-(4-hydroxy-3-methoxybenzoylamino)pentafluorosulfanylbenzene]", "IC50": 0.51},
      {"smiles": "C=CCc1cc(/C=C/C(=O)Nc2ccc(S(F)(F)(F)(F)F)cc2)cc(OC)c1O", "note": "[Compound 46, 4-(4-hydroxy-5-(2-propenyl)-3-methoxycinnamoylamino)pentafluorosulfanylbenzene]", "IC50": 2.5},
      {"smiles": "C/C=C/Cc1cc(/C=C/C(=O)Nc2ccc(S(F)(F)(F)(F)F)cc2)cc(OC)c1O", "note": "[Compound 47, 4-(4-hydroxy-5-(2-butenyl)-3-methoxycinnamoylamino)pentafluorosulfanylbenzene]", "IC50": 3.5},
      {"smiles": "C=CC(C)(C)Oc1cccc(C(=O)Nc2ccc(S(F)(F)(F)(F)F)cc2)c1", "note": "[Compound 48, 4-(3-(1,1-dimethyl-2-propenyloxy)benzoylamino)pentafluorosulfanylbenzene]", "IC50": 1.9},
      {"smiles": "O=C(/C=C/c1ccc(O)cc1O)Nc1ccc(S(F)(F)(F)(F)F)cc1", "note": "[Compound 51, 4-(2,4-dihydroxycinnamoylamino)pentafluorosulfanylbenzene]", "IC50": 1.2},
      {"smiles": "COc1ccc(/C=C/C(=O)Nc2ccc(S(F)(F)(F)(F)F)cc2)cc1O", "note": "[Compound 52, 4-(3-hydroxy-4-methoxycinnamoylamino)pentafluorosulfanylbenzene]", "IC50": 0.28},
      {"smiles": "COc1cc(/C=C/C(=O)Nc2ccc(S(F)(F)(F)(F)F)cc2)cc(OC)c1O", "note": "[Compound 53, 4-(4-hydroxy-3,5-dimethoxycinnamoylamino)pentafluorosulfanylbenzene]", "IC50": 0.9},
      {"smiles": "O=C(Nc1ccc(S(F)(F)(F)(F)F)cc1)c1ccc(O)c(F)c1", "note": "[Compound 57, 4-(4-hydroxy-3-fluorobenzoylamino)pentafluorosulfanylbenzene]", "IC50": 3.3},
      {"smiles": "O=C(Nc1ccc(S(F)(F)(F)(F)F)cc1)c1ccc(F)c(O)c1", "note": "[Compound 58, 4-(3-hydroxy-4-fluorobenzoylamino)pentafluorosulfanylbenzene]", "IC50": 5.3},
      {"smiles": "COc1cc(C(=O)Nc2ccc(S(F)(F)(F)(F)F)cc2)ccc1[N+](=O)[O-]", "note": "[Compound 59, 4-(4-nitro-3-methoxybenzoylamino)pentafluorosulfanylbenzene]", "IC50": 1.1},
      {"smiles": "COc1cc(C(=O)Nc2ccc(S(F)(F)(F)(F)F)cc2)ccc1N", "note": "[Compound 60, 4-(4-amino-3-methoxybenzoylamino)pentafluorosulfanylbenzene]", "IC50": 0.1},
      {"smiles": "Nc1ccc(C(=O)Nc2ccc(S(F)(F)(F)(F)F)cc2)cc1", "note": "[Compound 61, 4-(4-aminobenzoylamino)pentafluorosulfanylbenzene]", "IC50": 0.086},
      {"smiles": "O=C(Nc1ccc(S(F)(F)(F)(F)F)cc1)c1ccc([N+](=O)[O-])cc1", "note": "[Compound 62, 4-(4-nitrobenzoylamino)pentafluorosulfanylbenzene]", "IC50": 0.78},
      {"smiles": "C=CCOc1cccc(C(=O)Nc2ccc(S(F)(F)(F)(F)F)cc2)c1", "note": "[Compound 64, 4-(3-allyloxybenzoylamino)pentafluorosulfanylbenzene]", "IC50": 1.1},
      {"smiles": "O=C(Nc1ccc(S(F)(F)(F)(F)F)cc1)c1cccc(O)c1", "note": "[Compound 65, 4-(3-hydroxybenzoylamino)pentafluorosulfanylbenzene]", "IC50": 0.92},
      {"smiles": "O=C(Nc1ccc(S(F)(F)(F)(F)F)cc1)c1cccc(O)n1", "note": "[Compound 66, 4-(2-hydroxypyridin-6-yl)carbonylaminopentafluorosulfanylbenzene]", "IC50": 2.3},
      {"smiles": "O=C(Nc1ccc(S(F)(F)(F)(F)F)cc1)c1ncccc1O", "note": "[Compound 68, 4-(3-hydroxypyridin-2-yl)carbonylaminopentafluorosulfanylbenzene]", "IC50": 4.2},
      {"smiles": "O=C(Nc1ccc(S(F)(F)(F)(F)F)cc1)c1cc(O)ncn1", "note": "[Compound 69, 4-(4-hydroxypyrimidin-6-yl)carbonylaminopentafluorosulfanylbenzene]", "IC50": 2},
      {"smiles": "O=C(Nc1ccc(S(F)(F)(F)(F)F)cc1)c1ncccn1", "note": "[Compound 70, 4-(pyrimidin-2-yl)carbonylaminopentafluorosulfanylbenzene]", "IC50": 1.5},
      {"smiles": "O=C(Nc1ccc(S(F)(F)(F)(F)F)cc1)c1ccccn1", "note": "[Compound 71, 4-(pyridin-2-yl)carbonylaminopentafluorosulfanylbenzene]", "IC50": 4.4},
      {"smiles": "O=C(Nc1ccc(S(F)(F)(F)(F)F)cc1)c1ccncc1", "note": "[Compound 72, 4-(pyridin-4-yl)carbonylaminopentafluorosulfanylbenzene]", "IC50": 0.1},
      {"smiles": "O=C(Nc1ccc(S(F)(F)(F)(F)F)cc1)c1ccncn1", "note": "[Compound 73, 4-(pyrimidin-4-yl)carbonylaminopentafluorosulfanylbenzene]", "IC50": 2.3},
      {"smiles": "O=C(Nc1ccc(S(F)(F)(F)(F)F)cc1)c1cc2cc(O)c(O)cc2oc1=O", "note": "[Compound 74, 4-(6,7-dihydroxycoumarin-3-yl)carbonylaminopentafluorosulfanylbenzene]", "IC50": 5},
      {"smiles": "O=C(Nc1ccc(S(F)(F)(F)(F)F)cc1)c1ccncc1F", "note": "[Compound 75, 4-(3-fluoropyridin-4-yl)carbonylaminopentafluorosulfanylbenzene]", "IC50": 2},
      {"smiles": "O=C(Nc1ccc(S(F)(F)(F)(F)F)cc1)c1ccnc(F)c1", "note": "[Compound 76, 4-(2-fluoropyridin-4-yl)carbonylaminopentafluorosulfanylbenzene]", "IC50": 2},
      {"smiles": "O=C(Nc1ccc(S(F)(F)(F)(F)F)cc1)c1ncc[nH]1", "note": "[Compound 78, 4-(imidazol-2-yl)carbonylaminopentafluorosulfanylbenzene]", "IC50": 3.4},
      {"smiles": "O=C(Nc1ccc(S(F)(F)(F)(F)F)cc1)c1cnccn1", "note": "[Compound 79, 4-(pyrazin-2-yl)carbonylaminopentafluorosulfanylbenzene]", "IC50": 4.2},
      {"smiles": "O=C(Nc1ccc(S(F)(F)(F)(F)F)cc1)n1cccc1", "note": "[Compound 80, 4-(pyrrol-1-yl)carbonylaminopentafluorosulfanylbenzene]", "IC50": 4.9},
      {"smiles": "O=C(Nc1ccc(S(F)(F)(F)(F)F)cc1)c1cocn1", "note": "[Compound 81, 4-(oxazol-4-yl)carbonylaminopentafluorosulfanylbenzene]", "IC50": 2},
      {"smiles": "O=C(Nc1ccc(S(F)(F)(F)(F)F)cc1)c1cnco1", "note": "[Compound 82, 4-(oxazol-5-yl)carbonylaminopentafluorosulfanylbenzene]", "IC50": 3.6}
    ]},
    {"system": "K562 human leukemia-derived cell lines", "assay": "K562 human leukemia cell-proliferation inhibition test", "assay_type": "cell-based", "settings": "K562 cells, 72 hours, viable cells counted with trypan blue", "procedure": "as §1, §2, §3, §4, §5, §6, §7", "units": {"IC50": "µg/mL"}, "values": [
      {"smiles": "O=C(/C=C/c1ccc(O)c(O)c1)Nc1ccc(S(F)(F)(F)(F)F)cc1", "note": "[Compound 56, 4-(3,4-dihydroxycinnamoylamino)pentafluorosulfanylbenzene]", "IC50": 0.83}
    ]},
    {"system": "Salmonella typhimurium TA98 strain and TA100 strain", "assay": "Growth inhibitory action and bactericidal action on salmonella (preincubation method, with and without S9 mix)", "assay_type": "cell-based", "settings": "lowest concentration at which all bacterial cells were killed, TA98 and TA100, presence or absence of S9 mix", "procedure": "(§8) Growth inhibitory action and bactericidal action on salmonella\n(§9) 1) Preparation of Test-Substance Solution\n(§10) Test substances (compounds listed in Table 1) each were prepared by dissolving it in DMSO when used. Preparation was made in such a manner that the highest dose became 5000 μg/plate and the dose lower than this was prepared by a dilution method. In the table, reference numerals of individual compounds correspond to the numbers of the individual compounds synthesized in the above Examples (the same applies to the following Tables).\n(§11) Salmonella typhimurium TA98 strain and TA100 strain were used.\n(§12) These were supplied by Japan Bioassay Research Center, proliferated and examined for genetic properties and other properties in accordance with customary methods, in advance. After these strains were confirmed to have these properties, they are cryopreserved (−80° C.) with a DMSO-added medium; and thawed for use in each test.\n(§13) 3) A cryopreserved strain was thawed and inoculated in a 2.5% aqueous nutrient broth (OXOID No. 2) solution and cultured while shaking at 37° C. for 7 hours to obtain a cell suspension, which was subjected to tests.\n(§14) A minimum glucose agar plate medium (Vital Media AMT-S, manufactured by Kyokuto Pharmaceutical Industrial Co., Ltd.) was used.\n(§15) The top agar was prepared when used by blending an aqueous solution of 0.5 mM L-histidine and 0.5 mM D-(+)-biotin with an aqueous solution prepared by adding Bacto Agar (Difco) (0.6%) and sodium chloride (0.5%).\n(§16) S9 was purchased from Kikkoman; whereas a cofactor was previously prepared in accordance with a method known in the art. They were mixed in a customary method to prepare S9 mix.\n(§17) Using a test system containing S9 mix and a test system containing no S9 mix, a test was carried out in accordance with a preincubation method. As the dose selection, the highest dose was specified as […], which was then serially diluted in a common ratio of 2 to prepare a total of 15 doses to be used in the test.\n(§18) To a sterile test tube, a test solution (0.1 mL) and 0.1 M Na-phosphate buffer or S9 mix (0.5 mL) and a cell suspension (0.1 mL) were sequentially dispensed. Pre-incubation was carried out at 37° C. for 20 minutes while shaking. After completion of the pre-incubation, top agar (2 mL) kept warm at 45° C. was added, mixed and placed on a minimum glucose agar plate medium. After solidification, the plate was turned upside down and cultured at 37° C. for 48 hours.\n(§19) After completion of the culture, the state of microbial growth was observed by a stereomicroscope. After a precipitate on the plate was observed, revertant colonies were counted by the naked eye or a colony counter.\n(§20) 7) Criteria for Determination\n(§21) Growth of both TA98 and TA100 strains was examined in the presence or absence of S9 mix. Among the resultant concentrations at which growth was inhibited, the lowest concentration was specified as the growth inhibitory concentration. Similarly, the bactericidal concentration was specified as the lowest concentration at which all bacterial cells were killed.", "units": {"Bactericidal action": "μg/plate"}, "values": [
      {"smiles": "O=C(Nc1cc(S(F)(F)(F)(F)F)ccc1O)c1cc(O)c(O)c(O)c1", "note": "[Compound 12, 3-(3,4,5-trihydroxybenzoylamino)-4-hydroxypentafluorosulfanylbenzene]", "Bactericidal action": 1250},
      {"smiles": "O=C(Nc1ccc(S(F)(F)(F)(F)F)cc1NC(=O)c1cc(O)c(O)c(O)c1)c1cc(O)c(O)c(O)c1", "note": "[Compound 14, 3,4-bis(3,4,5-trihydroxybenzoylamino)pentafluorosulfanylbenzene]", "Bactericidal action": 1250},
      {"smiles": "CC(=O)Oc1ccc(/C=C/C(=O)Oc2ccc(S(F)(F)(F)(F)F)cc2)cc1OC(C)=O", "note": "[Compound 22, 4-(3,4-diacetoxycinnamoyloxy)pentafluorosulfanylbenzene]", "Bactericidal action": 156}
    ]},
    {"system": "Salmonella typhimurium TA98 strain and TA100 strain", "assay": "Growth inhibitory action and bactericidal action on salmonella (preincubation method, with and without S9 mix)", "assay_type": "cell-based", "settings": "lowest concentration at which growth was inhibited, TA98 and TA100, presence or absence of S9 mix", "procedure": "as §8, §9, §10, §11, §12, §13, §14, §15, §16, §17, §18, §19, §20, §21", "units": {"Growth inhibition": "μg/plate"}, "values": [
      {"smiles": "O=C(Nc1cc(S(F)(F)(F)(F)F)ccc1O)c1cc(O)c(O)c(O)c1", "note": "[Compound 12, 3-(3,4,5-trihydroxybenzoylamino)-4-hydroxypentafluorosulfanylbenzene]", "Growth inhibition": 313},
      {"smiles": "O=C(Nc1ccc(S(F)(F)(F)(F)F)cc1NC(=O)c1cc(O)c(O)c(O)c1)c1cc(O)c(O)c(O)c1", "note": "[Compound 14, 3,4-bis(3,4,5-trihydroxybenzoylamino)pentafluorosulfanylbenzene]", "Growth inhibition": 625},
      {"smiles": "CC(=O)Oc1ccc(/C=C/C(=O)Oc2ccc(S(F)(F)(F)(F)F)cc2)cc1OC(C)=O", "note": "[Compound 22, 4-(3,4-diacetoxycinnamoyloxy)pentafluorosulfanylbenzene]", "Growth inhibition": 156}
    ]}
  ]
}
